Source: the supplement of paper PMC8671470

Columns and labels:
Test in all cases: cell viability (% survival relative to DMSO control); higher = less cytotoxic
Settings in all cases: 72 h
[1] = system: myeloid leukemia patient primary cells Pat.10
In short: (§1)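 Mononuclear cells from patients with AML or CML were thawed, purified on Ficoll and placed in RPMI 1640 with 10% FBS at 10,000 cells/well on 384-well plates. The plates came pre-printed with 70 compounds at five tenfold concentrations spanning 1–10,000 nM, in duplicate, and cells were exposed for 72 h. CellTiter-Glo gave viability, scaled between DMSO wells and wells with 10 μM proteasome inhibitor. Where reported, area under the curve was obtained from log-logistic fits with four parameters using the drc and PharmacoGx R packages.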

[2] = system: myeloid leukemia patient primary cells Pat.11
In short: as §1

[3] = system: myeloid leukemia patient primary cells Pat.12
In short: as §1

[4] = system: myeloid leukemia patient primary cells Pat.13
In short: as §1

[5] = system: myeloid leukemia patient primary cells Pat.14
In short: as §1

[6] = system: myeloid leukemia patient primary cells Pat.3
In short: as §1

[7] = system: myeloid leukemia patient primary cells Pat.4
In short: as §1

[8] = system: myeloid leukemia patient primary cells Pat.5
In short: as §1

[9] = system: myeloid leukemia patient primary cells Pat.6
In short: as §1

[10] = system: myeloid leukemia patient primary cells Pat.8
In short: as §1

[11] = system: myeloid leukemia patient primary cells Pat.9
In short: as §1

Compound `C[C@]12C=CC(=O)C=C1CC[C@@H]1[C@@H]2[C@@H](O)C[C@@]2(C)[C@H]1CC[C@]2(O)C(=O)CO` [Prednisolone] has a cell viability ([1]; 1 nM) of 73.8%, a cell viability ([1]; 10 nM) of 39.2% and a cell viability ([1]; 100 nM) of 17.1%. It also gave a cell viability ([1]; 1000 nM) of 31.4%, a cell viability ([1]; 10000 nM) of 2.16% and a cell viability ([2]; 1 nM) of 96.9%. For the same compound, the cell viability ([2]; 10 nM) was 93.5%, the cell viability ([2]; 100 nM) was 85% and the cell viability ([2]; 1000 nM) was 83%. The cell viability ([2]; 10000 nM) was 64.8%, the cell viability ([3]; 1 nM) was 89% and the cell viability ([3]; 10 nM) was 88.8%. The cell viability ([3]; 100 nM) was 95.7%, the cell viability ([3]; 1000 nM) was 83.9% and the cell viability ([3]; 10000 nM) was 79%. The cell viability ([4]; 1 nM) was 93.4%, the cell viability ([4]; 10 nM) was 82% and the cell viability ([4]; 100 nM) was 92.6%. The cell viability ([4]; 1000 nM) was over 100%, the cell viability ([4]; 10000 nM) was over 100% and the cell viability ([5]; 1 nM) was 85.8%. The cell viability ([5]; 10 nM) was 46.4%, the cell viability ([5]; 100 nM) was 80.9% and the cell viability ([5]; 1000 nM) was 94%. The cell viability ([5]; 10000 nM) was 68.3%, the cell viability ([6]; 1 nM) was 95% and the cell viability ([6]; 10 nM) was 71.2%. For the same compound, the cell viability ([6]; 100 nM) was 73.9%, the cell viability ([6]; 1000 nM) was 46% and the cell viability ([6]; 10000 nM) was 35.2%. The cell viability ([7]; 1 nM) was 95.3%, the cell viability ([7]; 10 nM) was 78.8% and the cell viability ([7]; 100 nM) was 78.4%. For the same compound, the cell viability ([7]; 1000 nM) was 75.8%, the cell viability ([7]; 10000 nM) was 53.7% and the cell viability ([8]; 1 nM) was 40.8%. The cell viability ([8]; 10 nM) was 10.3%, the cell viability ([8]; 100 nM) was 21.7% and the cell viability ([8]; 1000 nM) was 72%. The cell viability ([8]; 10000 nM) was 20.7%, the cell viability ([9]; 1 nM) was over 100% and the cell viability ([9]; 10 nM) was 75.7%. The cell viability ([9]; 100 nM) was 89.4%, the cell viability ([9]; 1000 nM) was 78.5% and the cell viability ([9]; 10000 nM) was 66.2%. The cell viability ([10]; 1 nM) was 86.3%, the cell viability ([10]; 10 nM) was 70.1% and the cell viability ([10]; 100 nM) was 87.3%. The cell viability ([10]; 1000 nM) was 59.3%, the cell viability ([10]; 10000 nM) was 47.6% and the cell viability ([11]; 1 nM) was 99.2%. For the same compound, the cell viability ([11]; 10 nM) was 18.2%, the cell viability ([11]; 100 nM) was 84.8% and the cell viability ([11]; 1000 nM) was over 100%. The cell viability ([11]; 10000 nM) was over 100%.

In the case of `C=CCN(C)CCCCCCOc1ccc(C(=O)c2ccc(Br)cc2)c(F)c1.O=C(O)/C=C/C(=O)O` [Ro 48-8071 fumarate], the cell viability ([1]; 1 nM) is reported as 80.8%, the cell viability ([1]; 10 nM) is reported as 61.7% and the cell viability ([1]; 100 nM) is reported as 63.7%. The cell viability ([1]; 1000 nM) was 73.8%, the cell viability ([1]; 10000 nM) was under 0% and the cell viability ([2]; 1 nM) was 98.4%. The cell viability ([2]; 10 nM) was 100%, the cell viability ([2]; 100 nM) was 97.9% and the cell viability ([2]; 1000 nM) was 96.5%. It also gave a cell viability ([2]; 10000 nM) of 72.2%, a cell viability ([3]; 1 nM) of 96.5% and a cell viability ([3]; 10 nM) of 91.5%. The cell viability ([3]; 100 nM) was 93.7%, the cell viability ([3]; 1000 nM) was 82.9% and the cell viability ([3]; 10000 nM) was 77.6%. For the same compound, the cell viability ([4]; 1 nM) was 92.9%, the cell viability ([4]; 10 nM) was 98.7% and the cell viability ([4]; 100 nM) was 82.6%. It also gave a cell viability ([4]; 1000 nM) of 85.6%, a cell viability ([4]; 10000 nM) of 51.7% and a cell viability ([5]; 1 nM) of 93.2%. The cell viability ([5]; 10 nM) was 99.3%, the cell viability ([5]; 100 nM) was 91.9% and the cell viability ([5]; 1000 nM) was 99.6%. It also gave a cell viability ([5]; 10000 nM) of 21%, a cell viability ([6]; 1 nM) of 55% and a cell viability ([6]; 10 nM) of 59.7%. For the same compound, the cell viability ([6]; 100 nM) was 28.2%, the cell viability ([6]; 1000 nM) was 21.8% and the cell viability ([6]; 10000 nM) was 6.91%. The cell viability ([7]; 1 nM) was 86.4%, the cell viability ([7]; 10 nM) was 92% and the cell viability ([7]; 100 nM) was 88.3%. It also gave a cell viability ([7]; 1000 nM) of 88.5%, a cell viability ([7]; 10000 nM) of 56.3% and a cell viability ([8]; 1 nM) of over 100%. The cell viability ([8]; 10 nM) was 61.6%, the cell viability ([8]; 100 nM) was 73.3% and the cell viability ([8]; 1000 nM) was 73.5%. The cell viability ([8]; 10000 nM) was 0.265%, the cell viability ([9]; 1 nM) was 99.9% and the cell viability ([9]; 10 nM) was over 100%. The cell viability ([9]; 100 nM) was 87.1%, the cell viability ([9]; 1000 nM) was 92.9% and the cell viability ([9]; 10000 nM) was 37.7%. It also gave a cell viability ([10]; 1 nM) of 78.8%, a cell viability ([10]; 10 nM) of 96.9% and a cell viability ([10]; 100 nM) of 94.9%. It also gave a cell viability ([10]; 1000 nM) of 92.1%, a cell viability ([10]; 10000 nM) of 75.8% and a cell viability ([11]; 1 nM) of 90.4%. For the same compound, the cell viability ([11]; 10 nM) was 69.8%, the cell viability ([11]; 100 nM) was 87.2% and the cell viability ([11]; 1000 nM) was 84.8%. It also gave a cell viability ([11]; 10000 nM) of under 0%.

Work on `CN(CCOc1ccc(Cc2sc(O)nc2O)cc1)c1ccccn1` [Rosiglitazone] yielded a cell viability ([1]; 1 nM) of 73.8%, a cell viability ([1]; 10 nM) of 40% and a cell viability ([1]; 100 nM) of 87.7%. It also gave a cell viability ([1]; 1000 nM) of 67.1%, a cell viability ([1]; 10000 nM) of 49.2% and a cell viability ([2]; 1 nM) of 98.6%. The cell viability ([2]; 10 nM) was 92.1%, the cell viability ([2]; 100 nM) was 95.7% and the cell viability ([2]; 1000 nM) was 97.2%. It also gave a cell viability ([2]; 10000 nM) of 88.1%, a cell viability ([3]; 1 nM) of over 100% and a cell viability ([3]; 10 nM) of 97.4%. For the same compound, the cell viability ([3]; 100 nM) was 95.7%, the cell viability ([3]; 1000 nM) was 96.5% and the cell viability ([3]; 10000 nM) was 88.9%. The cell viability ([4]; 1 nM) was 80.8%, the cell viability ([4]; 10 nM) was 69.2% and the cell viability ([4]; 100 nM) was 99.9%. For the same compound, the cell viability ([4]; 1000 nM) was 91.9%, the cell viability ([4]; 10000 nM) was 78.3% and the cell viability ([5]; 1 nM) was 53.7%. It also gave a cell viability ([5]; 10 nM) of 59.7%, a cell viability ([5]; 100 nM) of over 100% and a cell viability ([5]; 1000 nM) of 91.1%. The cell viability ([5]; 10000 nM) was 50%, the cell viability ([6]; 1 nM) was 91.7% and the cell viability ([6]; 10 nM) was 63.6%. It also gave a cell viability ([6]; 100 nM) of 99.4%, a cell viability ([6]; 1000 nM) of 79.2% and a cell viability ([6]; 10000 nM) of 36%. The cell viability ([7]; 1 nM) was 83.3%, the cell viability ([7]; 10 nM) was 93% and the cell viability ([7]; 100 nM) was 99.6%. The cell viability ([7]; 1000 nM) was 94.1%, the cell viability ([7]; 10000 nM) was 95.3% and the cell viability ([8]; 1 nM) was 9.01%. The cell viability ([8]; 10 nM) was 3.3%, the cell viability ([8]; 100 nM) was 91.7% and the cell viability ([8]; 1000 nM) was 92.8%. The cell viability ([8]; 10000 nM) was 6.86%, the cell viability ([9]; 1 nM) was 89.5% and the cell viability ([9]; 10 nM) was 85.4%. The cell viability ([9]; 100 nM) was 96.7%, the cell viability ([9]; 1000 nM) was 99% and the cell viability ([9]; 10000 nM) was 77.9%. For the same compound, the cell viability ([10]; 1 nM) was 92.6%, the cell viability ([10]; 10 nM) was 87% and the cell viability ([10]; 100 nM) was 80.3%. For the same compound, the cell viability ([10]; 1000 nM) was 91.8%, the cell viability ([10]; 10000 nM) was 69.7% and the cell viability ([11]; 1 nM) was 55%. The cell viability ([11]; 10 nM) was 24.9%, the cell viability ([11]; 100 nM) was 94.9% and the cell viability ([11]; 1000 nM) was 61.9%. It also gave a cell viability ([11]; 10000 nM) of 29.7%.
